# Laboratory results from US11034654B2, “2,3-dihydroisoindole-1-carboxamides useful as ROR-gamma modulators” (AstraZeneca AB, priority 2017, dated 2021).
# Assays:
# [1] = target: T1, RORγ ligand binding domain (Homo sapiens, UniProt P51449); assay: RORγ radioligand competition binding assay (SPA); conditions: competition with tritiated 2-(4-(ethylsulfonyl)phenyl)-N-(4-(2-(methoxymethyl)phenyl)thiophen-2-yl)acetamide (25 nM), hRORγ LBD
# Description: RORγ Radioligand Competition Binding Assay The aim of this assay is to identify compounds which bind to the RORγ ligand binding domain, by competing with tritiated 2-(4-(ethylsulfonyl)phenyl)-N-(4-(2-(methoxymethyl)phenyl)thiophen-2-yl)acetamide. Human RORγ (Ligand Binding Domain (RORγ LBD) was expressed in E. coli (BL21DE3 Star) as a fusion protein: N-6×HN-Avi-GST-TCS-hRORγ LBD (S258-K518) subcloned into pET24a(+). The LBD (258-518) is underlined in the protein sequence: The scintillation proximity assay (SPA) was run in white polystyrene flat-bottom 384-well plates (Greiner, cat. No. 781075). Assays were carried out in 40 μl reaction volumes. Various concentrations of test ligands in 0.4 microlitres of DMSO were added to assay plates using an acoustic liquid dispenser. 4 nM purified N-(HN)6-GST-TCS-hRORγ (258-518) was mixed with 40 micrograms Yttrium oxide (YOx) glutathione SPA imaging beads in assay buffer (20 mM Tris, 150 mM NaCl, 10% Glycerol, 0.25% CHAPS, 1 mM TCEP) prior to adding 30 microlitres to test ligands. Assay plates were incubated for one hour at room temperature before adding 10 microlitres tritiated 2-(4-(ethylsulfonyl)phenyl)-N-(4-(2-(methoxymethyl)phenyl)thiophen-2-yl)acetamide to test plates in assay buffer (final concentration, 25 nM). Test plates were incubated for 16 hours and read using a LEADseeker Multimodality imaging instrument. The raw data was analysed and IC50 and Ki values for the compounds were calculated using Genedata Screener software. Raw data was transformed to % effect using equation 1: Compound % effect=100*[(X−min)/(max−min)], where X represents the normalized value for the compound based on the Min (vehicle) and Max (reference compound) inhibition controls. The concentration of test ligand that inhibited radioligand binding by 50% (i.e., the IC50) was calculated by plotting the % effect versus test ligand concentration and fitting the data using the Genedata Screener Smart fit algorithm. Ki is calculated from the IC50 value using the equation Ki=IC50/1+[L]/Kd) where [L]=25 nmol/L and Kd=17 nmol/L
# [2] = tested on: human TH17 cells; assay: Inhibition of IL-17 release from human TH17 cells; type: cell-based; conditions: 96 h; isolated human TH17 cells cultured 4 days, IL-17A in supernatant by HTRF; read-out: pIC50 IL-17 release (converted)
# Description: Inhibition of IL-17 Release from Human TH17 Cells
# This test is designed to screen compounds for their inhibitory effect on the release of IL-17 from isolated and cultured human TH17 cells.
# Peripheral blood mononuclear cells (PBMC) were isolated from heparin treated human whole blood from healthy donors by density gradient centrifugation. TH17 cells (CD4+CXCR3−CCR6+) were enriched using a human TH17 Cell Enrichment Kit (Stemcell Technologies) according to the manufacturer's protocol. The isolated TH17 cells were activated with aCD3aCD28 beads (MACS Miltenyi) and cultured in X-Vivo15 medium (Lonza) supplemented with L-glutamine, β-mercaptoethanol and a cytokine cocktail consisting of; IL-2, IL-23, IL-1β, IL-6, TGF-β. Cells were seeded at 8000 cells/well in a 384-plate (Corning, #3707) in the presence of compounds or DMSO and cultured for 4 days (37° C., 5% CO2). On day 4 supernatants were collected and IL-17A was measured using a Human IL-17 HTRF Assay kit (Cisbio Bioassays) according to the manufacturer's protocol. The IC50 values for the tested compounds was calculated using Genedata Screener® software (Genedata) using the following calculation method; Compound % effect=100*[(X−min)/(max−min)], where X represents the normalized value for the compound based on the Min (DMSO) and Max (compound 3-(1,3-benzodioxol-5-yl)-1-(3,5-dimethylpiperidin-1-yl)-3-(2-hydroxy-4,6-dimethoxyphenyl)propan-1-one at 10 μM, described in J. R. Hu et al. ACS Med. Chem. Lett. 2013, 4, 79-84) inhibition controls. Results
# [3] = target: T1, RORγ ligand binding domain; assay: RORγ co-factor recruitment assay (FRET); type: biochemical; design: made in house; host or cells: E. coli BL21DE3 Star; conditions: inhibition of recruitment of SRC-1 peptide (NCOA1_677-700) to hRORγ LBD, HTRF read-out
# Description: RORγ Co-Factor Recruitment Assay A high throughput coactivator binding assay for the identification of inverse agonists of the recruitment of peptide SRC-1 (NCOA1_677-_700) to the RORγ ligand binding domain was established. The ligand binding domain (LBD) of human RORγ was expressed in E. coli (BL21DE3 Star) as a fusion protein: N-6×HN-MBP-Avi-TCS-hRORγLBD(P260-K518) subcloned into pET24a(+). The LBD (P260-K518) is underlined in the protein sequence: The assay was run in black 384 well plates (Greiner cat no: 784900). Various concentrations of test ligands in 0.1 microlitres DMSO were dispensed to assay plates using an Echo acoustic dispenser. Two pre-mixes were prepared and incubated for 1 h at room temp in the dark. Pre-mix 1 comprised 100 nM Protein (Biotinylated HN-Avi-MBP-TCS-hRORγ (258-518)) and 60 nM Streptavidin APC in assay buffer, 50 mM MOPS pH7.4, 50 mM KF, 0.003% (w/v) CHAPS, 10 mM DTT and 0.01% (w/v) BSA and pre-mix 2 comprised 160 nM biotinylated SRC-1 peptide (NCOA1-677-700) and 20 nM Europium-W8044 labelled Streptavidin in assay buffer. Five microlitres of pre-mix 2 was dispensed to assay plates containing 0.1 microlitres of test compound and was incubated for 15 min prior to adding five microlitres of pre-mix 1. Plates were incubated at rt for 1 hour in the dark, prior to reading in a Pherastar multi-mode plate reader using HTRF filter set (ex 320, em 612 and 665). The FRET signal at 665 nm was divided by the signal at 612 nm and multiplied by 10,000 to generate a signal ratio value for each well. The raw data was transformed to % effect using the equation: Compound % effect=100*[(X−min)/(max−min)], where X represents the normalized value for the compound based on the Min (vehicle) and Max (reference compound) inhibition control. The concentration of test ligand that inhibited the activity by 50% (i.e., the IC50) was calculated by plotting the % effect versus test ligand concentration and fitting the data using the Genedata Screener Smart fit algorithm.
Structure (SMILES),IC50 [1],IC50 [2],IC50 [3]
"CC(=O)N1Cc2cc(S(C)(=O)=O)ccc2C1C(=O)Nc1ccc(C(NCCCS(C)(=O)=O)(C(F)(F)F)C(F)(F)F)cc1 (stereo not drawn) [Example 22, 2-Acetyl-N-[4-(1,1,1,3,3,3-hexafluoro-2-{[3-(methylsulfonyl)propyl]amino}propan-2-yl)phenyl]-5-(methylsulfonyl)-2,3-dihydro-1H-isoindole-1-carboxamide]",1000 nM,794 nM,1000 nM
"CC(=O)N1Cc2cc(S(C)(=O)=O)ccc2C1C(=O)Nc1ccc(C(N2CCOCC2)(C(F)(F)F)C(F)(F)F)cc1 (stereo not drawn) [Example 23, 2-Acetyl-N-{4-[1,1,1,3,3,3-hexafluoro-2-(morpholin-4-yl)propan-2-yl]phenyl}-5-(methylsulfonyl)-2,3-dihydro-1H-isoindole-1-carboxamide]",20 nM,15.8 nM,39.8 nM
"CC(=O)N1Cc2cc(S(C)(=O)=O)ccc2C1C(=O)Nc1ccc(C(c2nnn(C)n2)(C(F)(F)F)C(F)(F)F)cc1 (stereo not drawn) [Example 30, 2-Acetyl-N-{4-[1,1,1,3,3,3-hexafluoro-2-(2-methyl-2H-tetrazol-5-yl)propan-2-yl]phenyl}-5-(methylsulfonyl)-2,3-dihydro-1H-isoindole-1-carboxamide]",39.8 nM,25.1 nM,126 nM
"COC(=O)CC(c1ccc(NC(=O)C2NCc3cc(S(C)(=O)=O)ccc32)cc1)(C(F)(F)F)C(F)(F)F (stereo not drawn) [Example 31, Methyl 4,4,4-trifluoro-3-[4-[(5-methylsulfonylisoindoline-1-carbonyl)amino]phenyl]-3-(trifluoromethyl)butanoate]",794 nM,200 nM,200 nM
"COC(=O)CC(c1ccc(NC(=O)C2c3ccc(S(C)(=O)=O)cc3CN2C(C)=O)cc1)(C(F)(F)F)C(F)(F)F (stereo not drawn) [Example 32, Methyl 3-[4-({[2-acetyl-5-(methylsulfonyl)-2,3-dihydro-1H-isoindol-1-yl]carbonyl}amino)phenyl]-4,4,4-trifluoro-3-(trifluoromethyl)butanoate]",25.1 nM,15.8 nM,50.1 nM
"CC(=O)N1Cc2cc(S(C)(=O)=O)ccc2C1C(=O)Nc1ccc(C(CCO)(C(F)(F)F)C(F)(F)F)cc1 (stereo not drawn) [Example 33, 2-Acetyl-5-(methylsulfonyl)-N-{4-[1,1,1-trifluoro-4-hydroxy-2-(trifluoromethyl)butan-2-yl]phenyl}-2,3-dihydro-1H-isoindole-1-carboxamide]",251 nM,200 nM,158 nM
"CC(=O)N1Cc2cc(S(C)(=O)=O)ccc2C1C(=O)Nc1ccc(C(Cc2nc(C)no2)(C(F)(F)F)C(F)(F)F)cc1 (stereo not drawn) [Example 34, 2-Acetyl-N-(4-{1,1,1,3,3,3-hexafluoro-2-[(3-methyl-1,2,4-oxadiazol-5-yl)methyl]propan-2-yl}phenyl)-5-(methylsulfonyl)-2,3-dihydro-1H-isoindole-1-carboxamide]",20 nM,20 nM,126 nM
"CC(=O)N1Cc2cc(S(C)(=O)=O)ccc2C1C(=O)Nc1ccc(C(CCF)(C(F)(F)F)C(F)(F)F)cc1 (stereo not drawn) [Example 35, 2-Acetyl-5-(methylsulfonyl)-N-{4-[1,1,1,4-tetrafluoro-2-(trifluoromethyl)butan-2-yl]phenyl}-2,3-dihydro-1H-isoindole-1-carboxamide]",10 nM,6.31 nM,39.8 nM
"CC(=O)N1Cc2cc(S(C)(=O)=O)ccc2C1C(=O)Nc1ccc(C(CC#N)(C(F)(F)F)C(F)(F)F)cc1 (stereo not drawn) [Example 36, 2-Acetyl-N-{4-[2-(cyanomethyl)-1,1,1,3,3,3-hexafluoropropan-2-yl]phenyl}-5-(methylsulfonyl)-2,3-dihydro-1H-isoindole-1-carboxamide]",158 nM,63.1 nM,100 nM
"CCOC(=O)CC(c1ccc(NC(=O)C2c3ccc(S(C)(=O)=O)cc3CN2C(C)=O)cc1)(C(F)(F)F)C(F)(F)F (stereo not drawn) [Example 37, Ethyl 3-[4-({[2-acetyl-5-(methylsulfonyl)-2,3-dihydro-1H-isoindol-1-yl]carbonyl}amino)phenyl]-4,4,4-trifluoro-3-(trifluoromethyl)butanoate]",15.8 nM,25.1 nM,100 nM
"CC(=O)N1Cc2cc(S(C)(=O)=O)ccc2C1C(=O)Nc1ccc(C(CC(=O)NC2CC2)(C(F)(F)F)C(F)(F)F)cc1 (stereo not drawn) [Example 38, 2-Acetyl-N-{4-[4-(cyclopropylamino)-1,1,1-trifluoro-4-oxo-2-(trifluoromethyl)butan-2-yl]phenyl}-5-(methylsulfonyl)-2,3-dihydro-1H-isoindole-1-carboxamide]",794 nM,1000 nM,631 nM
"CC(=O)N1Cc2cc(S(C)(=O)=O)ccc2C1C(=O)Nc1ccc(C(CC(=O)NCCF)(C(F)(F)F)C(F)(F)F)cc1 (stereo not drawn) [Example 41, 2-Acetyl-5-(methylsulfonyl)-N-(4-{1,1,1-trifluoro-4-[(2-fluoroethyl)amino]-4-oxo-2-(trifluoromethyl)butan-2-yl}phenyl)-2,3-dihydro-1H-isoindole-1-carboxamide]",794 nM,> 3160 nM,316 nM
"CC(=O)N1Cc2cc(S(C)(=O)=O)ccc2C1C(=O)Nc1ccc(C(CC(=O)N(C)C)(C(F)(F)F)C(F)(F)F)cc1 (stereo not drawn) [Example 42, 2-Acetyl-N-{4-[4-(dimethylamino)-1,1,1-trifluoro-4-oxo-2-(trifluoromethyl)butan-2-yl]phenyl}-5-(methylsulfonyl)-2,3-dihydro-1H-isoindole-1-carboxamide]",794 nM,794 nM,316 nM
